From the NIST ThermoML archive (doi:10.1016/j.tca.2005.08.034)

Key:
[1] = 298.15 K; for surface tension liquid-gas: Drop volume; for speed of sound / mass density: 101.33 kPa, Liquid; for mass density: Vibrating tube method
[2] = refractive index (Na D-line) (dimensionless); conditions: 298.15 K; 101.33 kPa; Liquid; refractometer
[3] = refractive index (Na D-line) (dimensionless); φn = volume fraction of the nth substance listed; conditions: 298.15 K, 101.3 kPa, Liquid, refractometer
[4] = xn = mol fraction of the nth substance listed; conditions: 298.15 K; for surface tension liquid-gas: Drop volume; for mass density / speed of sound: 101.3 kPa, Liquid; for mass density: Vibrating tube method
[5] = excess molar enthalpy (molar enthalpy of mixing); xn = mol fraction of the nth substance listed; conditions: 298.15 K, 101.3 kPa, Liquid, Flow calorimetry

CC1CCCO1 (stereo unspecified) [2-methyltetrahydrofuran]
Conditions | mass density [kg/m3] | refractive index | speed of sound [m/s] | surface tension liquid-gas [mN/m]
[1] | 849.2 | – | 1202.8 | 24.68
[2] | – | 1.40287 | – | –

CC1CCCO1 (stereo unspecified) [2-methyltetrahydrofuran] + Clc1ccccc1
Conditions | excess molar enthalpy [kJ/mol] | mass density [kg/m3] | refractive index | speed of sound [m/s] | surface tension liquid-gas [mN/m]
[3], φ1 = 0.0479 | – | – | 1.5165 | – | –
[3], φ1 = 0.0961 | – | – | 1.5112 | – | –
[3], φ1 = 0.1979 | – | – | 1.49985 | – | –
[3], φ1 = 0.2981 | – | – | 1.48853 | – | –
[3], φ1 = 0.3966 | – | – | 1.47724 | – | –
[3], φ1 = 0.5008 | – | – | 1.46501 | – | –
[3], φ1 = 0.5987 | – | – | 1.45323 | – | –
[3], φ1 = 0.7006 | – | – | 1.44079 | – | –
[3], φ1 = 0.8014 | – | – | 1.4283 | – | –
[3], φ1 = 0.9043 | – | – | 1.41518 | – | –
[3], φ1 = 0.9492 | – | – | 1.40941 | – | –
[4], x1 = 0.0378 | – | 1092.14 | – | 1266.6 | –
[4], x1 = 0.0483 | – | – | – | – | 32.6
[4], x1 = 0.0969 | – | – | – | – | 32.19
[4], x1 = 0.0995 | – | 1077.75 | – | 1264.3 | –
[4], x1 = 0.1875 | – | 1056.86 | – | 1261.1 | –
[4], x1 = 0.1993 | – | – | – | – | 31.31
[4], x1 = 0.2987 | – | 1030.2 | – | 1256.5 | –
[4], x1 = 0.2999 | – | – | – | – | 30.45
[4], x1 = 0.3922 | – | 1007.36 | – | 1251.9 | –
[4], x1 = 0.3988 | – | – | – | – | 29.61
[4], x1 = 0.4947 | – | 981.73 | – | 1246.3 | –
[4], x1 = 0.503 | – | – | – | – | 28.74
[4], x1 = 0.5973 | – | 955.71 | – | 1239.9 | –
[4], x1 = 0.6008 | – | – | – | – | 27.92
[4], x1 = 0.6435 | – | 943.88 | – | 1236.6 | –
[4], x1 = 0.7024 | – | – | – | – | 27.09
[4], x1 = 0.8003 | – | 902.98 | – | 1223.5 | –
[4], x1 = 0.8028 | – | – | – | – | 26.27
[4], x1 = 0.9051 | – | – | – | – | 25.44
[4], x1 = 0.9074 | – | 874.39 | – | 1212.9 | –
[4], x1 = 0.9393 | – | 865.76 | – | 1209.6 | –
[4], x1 = 0.9496 | – | – | – | – | 25.08
[5], x1 = 0.058 | -0.085 | – | – | – | –
[5], x1 = 0.105 | -0.168 | – | – | – | –
[5], x1 = 0.198 | -0.332 | – | – | – | –
[5], x1 = 0.294 | -0.477 | – | – | – | –
[5], x1 = 0.391 | -0.572 | – | – | – | –
[5], x1 = 0.488 | -0.628 | – | – | – | –
[5], x1 = 0.585 | -0.623 | – | – | – | –
[5], x1 = 0.683 | -0.575 | – | – | – | –
[5], x1 = 0.784 | -0.448 | – | – | – | –
[5], x1 = 0.883 | -0.262 | – | – | – | –
[5], x1 = 0.932 | -0.165 | – | – | – | –

CC1CCCO1 (stereo unspecified) [2-methyltetrahydrofuran] + c1ccccc1
Conditions | excess molar enthalpy [kJ/mol] | mass density [kg/m3] | refractive index | speed of sound [m/s] | surface tension liquid-gas [mN/m]
[3], φ1 = 0.0603 | – | – | 1.49204 | – | –
[3], φ1 = 0.1086 | – | – | 1.48747 | – | –
[3], φ1 = 0.2167 | – | – | 1.47724 | – | –
[3], φ1 = 0.331 | – | – | 1.46642 | – | –
[3], φ1 = 0.4263 | – | – | 1.4574 | – | –
[3], φ1 = 0.5289 | – | – | 1.44769 | – | –
[3], φ1 = 0.6273 | – | – | 1.43835 | – | –
[3], φ1 = 0.7294 | – | – | 1.42866 | – | –
[3], φ1 = 0.8223 | – | – | 1.41981 | – | –
[3], φ1 = 0.9137 | – | – | 1.41109 | – | –
[3], φ1 = 0.9587 | – | – | 1.40681 | – | –
[4], x1 = 0.0456 | – | 872.27 | – | 1295.7 | –
[4], x1 = 0.0536 | – | – | – | – | 28.33
[4], x1 = 0.0971 | – | – | – | – | 28.15
[4], x1 = 0.0981 | – | 871 | – | 1290.9 | –
[4], x1 = 0.1962 | – | – | – | – | 27.74
[4], x1 = 0.1987 | – | 868.57 | – | 1281.6 | –
[4], x1 = 0.2996 | – | 866.21 | – | 1271.8 | –
[4], x1 = 0.3039 | – | – | – | – | 27.3
[4], x1 = 0.395 | – | 863.99 | – | 1263 | –
[4], x1 = 0.396 | – | – | – | – | 26.92
[4], x1 = 0.4976 | – | – | – | – | 26.51
[4], x1 = 0.4979 | – | 861.47 | – | 1253.1 | –
[4], x1 = 0.5949 | – | 859.05 | – | 1243.6 | –
[4], x1 = 0.5976 | – | – | – | – | 26.12
[4], x1 = 0.6798 | – | 856.87 | – | 1235.1 | –
[4], x1 = 0.704 | – | – | – | – | 25.71
[4], x1 = 0.7992 | – | 853.68 | – | 1222.7 | –
[4], x1 = 0.8033 | – | – | – | – | 25.36
[4], x1 = 0.896 | – | 851.23 | – | 1212.7 | –
[4], x1 = 0.9034 | – | – | – | – | 25.01
[4], x1 = 0.9486 | – | 850.1 | – | 1207.5 | –
[4], x1 = 0.9535 | – | – | – | – | 24.84
[5], x1 = 0.054 | -0.022 | – | – | – | –
[5], x1 = 0.097 | -0.046 | – | – | – | –
[5], x1 = 0.188 | -0.097 | – | – | – | –
[5], x1 = 0.279 | -0.138 | – | – | – | –
[5], x1 = 0.377 | -0.171 | – | – | – | –
[5], x1 = 0.494 | -0.188 | – | – | – | –
[5], x1 = 0.575 | -0.194 | – | – | – | –
[5], x1 = 0.679 | -0.177 | – | – | – | –
[5], x1 = 0.783 | -0.139 | – | – | – | –
[5], x1 = 0.89 | -0.082 | – | – | – | –
[5], x1 = 0.944 | -0.045 | – | – | – | –

c1ccccc1 [benzene]
Conditions | mass density [kg/m3] | refractive index | speed of sound [m/s] | surface tension liquid-gas [mN/m]
[1] | 873.39 | – | 1299.2 | 28.57
[2] | – | 1.49774 | – | –

Clc1ccccc1 [chlorobenzene]
Conditions | mass density [kg/m3] | refractive index | speed of sound [m/s] | surface tension liquid-gas [mN/m]
[1] | 1100.94 | – | 1267.9 | 33
[2] | – | 1.52176 | – | –

Fc1ccccc1 [fluorobenzene]
Conditions | mass density [kg/m3] | refractive index | speed of sound [m/s] | surface tension liquid-gas [mN/m]
[1] | 1018.79 | – | 1166 | 27.43
[2] | – | 1.4629 | – | –

Fc1ccccc1 [fluorobenzene] + CC1CCCO1
Conditions | excess molar enthalpy [kJ/mol] | mass density [kg/m3] | refractive index | speed of sound [m/s] | surface tension liquid-gas [mN/m]
[3], φ2 = 0.039 | – | – | 1.4608 | – | –
[3], φ2 = 0.1151 | – | – | 1.45666 | – | –
[3], φ2 = 0.2069 | – | – | 1.4516 | – | –
[3], φ2 = 0.3103 | – | – | 1.44577 | – | –
[3], φ2 = 0.4171 | – | – | 1.4396 | – | –
[3], φ2 = 0.5137 | – | – | 1.43392 | – | –
[3], φ2 = 0.6218 | – | – | 1.42736 | – | –
[3], φ2 = 0.6938 | – | – | 1.42282 | – | –
[3], φ2 = 0.7916 | – | – | 1.41661 | – | –
[3], φ2 = 0.9154 | – | – | 1.40849 | – | –
[3], φ2 = 0.9727 | – | – | 1.40473 | – | –
[4], x2 = 0.0364 | – | – | – | – | 27.39
[4], x2 = 0.0456 | – | 1011.05 | – | 1168.5 | –
[4], x2 = 0.099 | – | 1001.97 | – | 1171.6 | –
[4], x2 = 0.108 | – | – | – | – | 27.27
[4], x2 = 0.1923 | – | 986.13 | – | 1176.9 | –
[4], x2 = 0.1998 | – | – | – | – | 27.07
[4], x2 = 0.2882 | – | 969.82 | – | 1182.1 | –
[4], x2 = 0.2952 | – | – | – | – | 26.83
[4], x2 = 0.3925 | – | 952.32 | – | 1187.1 | –
[4], x2 = 0.3998 | – | – | – | – | 26.52
[4], x2 = 0.4884 | – | 936.02 | – | 1191.1 | –
[4], x2 = 0.4958 | – | – | – | – | 26.21
[4], x2 = 0.5925 | – | 918.32 | – | 1194.8 | –
[4], x2 = 0.6048 | – | – | – | – | 25.86
[4], x2 = 0.6784 | – | – | – | – | 25.62
[4], x2 = 0.6907 | – | 901.51 | – | 1197.6 | –
[4], x2 = 0.7796 | – | – | – | – | 25.3
[4], x2 = 0.7942 | – | 883.72 | – | 1199.4 | –
[4], x2 = 0.8938 | – | 866.65 | – | 1201 | –
[4], x2 = 0.9097 | – | – | – | – | 24.92
[4], x2 = 0.9481 | – | 857.59 | – | 1201.9 | –
[4], x2 = 0.9707 | – | – | – | – | 24.76
[5], x2 = 0.056 | -0.08 | – | – | – | –
[5], x2 = 0.101 | -0.156 | – | – | – | –
[5], x2 = 0.195 | -0.312 | – | – | – | –
[5], x2 = 0.288 | -0.431 | – | – | – | –
[5], x2 = 0.388 | -0.521 | – | – | – | –
[5], x2 = 0.474 | -0.578 | – | – | – | –
[5], x2 = 0.583 | -0.568 | – | – | – | –
[5], x2 = 0.685 | -0.517 | – | – | – | –
[5], x2 = 0.786 | -0.404 | – | – | – | –
[5], x2 = 0.889 | -0.24 | – | – | – | –
[5], x2 = 0.94 | -0.135 | – | – | – | –
